Tests used:
Test in all cases: relative viability (nuclei count vs DMSO), 5 days (fraction); higher = more cells survive
[1] = compound: CNC(=O)c1ccccc1Sc1ccc2c(/C=C/c3ccccn3)n[nH]c2c1 [Axitinib] + Nc1nc2[nH]cc(CCc3ccc(C(=O)N[C@@H](CCC(=O)O)C(=O)O)cc3)c2c(=O)[nH]1 [Pemetrexed] (partner 0.2 µM)
In short: (§1)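 Each reported value is a median over duplicate plates. It expresses relative viability: treated-well nuclei count divided by vehicle-well nuclei count. Lung cancer cell lines in 1536-well plates were dosed by pin tool a day after seeding, alone with one drug or with a fixed anchor-drug dose plus five library-drug doses (not always all listed) in √10 steps, and nuclei were counted after 5 days.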

[2] = compound: CNC(=O)c1ccccc1Sc1ccc2c(/C=C/c3ccccn3)n[nH]c2c1 [Axitinib] + COc1cccc2cc(-c3nc([C@H]4CC[C@H](C(=O)O)CC4)n4ncnc(N)c34)[nH]c12 [OSI-027] (partner 0.5 µM)
In short: as §1

[3] = compound: Nc1nc(Nc2ccc3c(c2)CC[C@@H](N2CCCC2)CC3)nn1-c1cc2c(nn1)-c1ccccc1CCC2 [Bemcentinib] + Nc1nc2[nH]cc(CCc3ccc(C(=O)N[C@@H](CCC(=O)O)C(=O)O)cc3)c2c(=O)[nH]1 [Pemetrexed] (partner 0.2 µM)
In short: as §1

[4] = compound: CC1=CC=C(C=C1)C(=O)CN2C3=C(CCCC3)SC2=N [Pifithrin_alpha] + COc1cc2c(Oc3ccc(NC(=O)C4(C(=O)Nc5ccc(F)cc5)CC4)cc3F)ccnc2cc1OCCCN1CCOCC1 [Foretinib] (partner 0.25 µM)
In short: as §1

NCI-H650
relative viability ([1]; first compound 0.005 µM): 1.09 | relative viability ([1]; first compound 0.01581 µM): 0.808 | relative viability ([1]; first compound 0.05 µM): 1.04 | relative viability ([1]; first compound 0.1581 µM): 1.02 | relative viability ([1]; first compound 0.5 µM): 0.855 | relative viability ([2]; first compound 0.005 µM): 0.533 | relative viability ([2]; first compound 0.01581 µM): 0.486 | relative viability ([2]; first compound 0.05 µM): 0.517 | relative viability ([2]; first compound 0.1581 µM): 0.571 | relative viability ([2]; first compound 0.5 µM): 0.584 | relative viability ([3]; first compound 0.04 µM): 0.843 | relative viability ([3]; first compound 0.1265 µM): 1.06 | relative viability ([3]; first compound 0.4 µM): 1.09 | relative viability ([3]; first compound 1.265 µM): 0.941 | relative viability ([3]; first compound 4 µM): 1.01 | relative viability ([4]; first compound 3.162 µM): 0.996 | relative viability ([4]; first compound 10 µM): 1.05 | relative viability ([4]; first compound 31.62 µM): 0.793 | relative viability ([4]; first compound 100 µM): 0.902

— the supplement of paper PMC10307832
